# From US10815231B2, “[1,2,4] triazolo [1,5-a] pyridine derivative and crystalline form thereof” (WEST CHINA HOSPITAL, SICHUAN UNIVERSITY, priority 2016, dated 2020)
# Where “and” joins values, the source holds several entries; their conditions need not be identical. Equal entries are not always repeated.
# What was measured:
# H1299 cells = experiment: MTT detection method, inhibitory effect against H1299 cells; type: cell-based; conditions: 5000 cells/well, treatment 48 h; for The mean inhibitory ratio (%): mean of three; for The inhibitory ratio (%) for three parallel assays: single parallel assays
# Description: (§1) MTT detection method was used, and MTT is a yellow compound and a dye accepting hydrogen ions, and can be used as the respiratory chain in mitochondria of viable cells. Under the action of succinate dehydrogenase and cytochrome C, the tetrazolium ring broke to form blue formanzan crystal, and the formation amount of formanzan crystal was only directly proportional to the viable counts. The formanzan crystal formed by reduction can dissolve in dimethyl sulfoxide (DMSO), and the optical density (OD) value can be determined at 490 nm using ELISA, to reflect the viable counts.
# (§2) Lung cancer cell lines: A549 and H1299.
# (§3) Experimental materials: lung cancer cell lines, instruments and tools for cell culture, MTT, and the compound mother liquid (10 mmol/L).
# (§4) (3-1) Cell lines A549 and H1299 were recovered, and when the cells were in good conditions, namely cells grew to about 80% after one passage (i.e. the logarithmic growth phase), the cells were planked (96-well plate).
# (§5) (3-2) Firstly, cells were collected, and the concentration of cell suspension was adjusted with counting chamber. Cells were seeded in 96-well plate at 1000-10000 cells/well, and the detailed cell numbers in each well were dependent on the growth rate of different cells and the action time of drugs. A549 cells were seeded at 5000 cells, while H1299 cells were also seeded at 5000 cells, 200 μl for each well (100 μl cell suspension+100 μl drug dilution at different concentration gradient). The edge wells (36) were added 200 μl culture media (for prevention of edge effect).
# (§6) (3-3) After planking and adding drugs, the plate was treated at 24 h, 48 h, and 72 h, and then for coloration, each well was added 200 μl culture media containing 20 μl MTT solution (5 mg/mL). The plate was continually cultured for 1-4 hours, and the culture supernatant fluid in each well was carefully absorbed. For suspension cells, the culture supernatant fluid in each well need be centrifuged before drawing. 150 μl DMSO was added to each well, and the plate was shaken on a shaking table for 15-20 min, to allow the crystals to be completely dissolved.
# (§7) (3-4) Colorimetry: The colorimetry was performed by ELISA, and the optical absorption value of each well was tested at a wavelength of 490 nm or 570 nm, and the result was recorded.
# (§8) (3-5) Calculation Inhibition ratio=(the control−the drug)/the control×100%
# (§9) IC50 (50% inhibitory concentration) can be calculated by spass software based on the inhibitory ratio at different concentration.
# A549 cells = experiment: MTT detection method, inhibitory effect against A549 cells; type: cell-based; conditions: 5000 cells/well, treatment 48 h; for The mean inhibitory ratio (%): mean of three; for The inhibitory ratio (%) for three parallel assays: single parallel assays
# Description: as §1, §2, §3, §4, §5, §6, §7, §8, §9
Compound,The mean inhibitory ratio (%) (H1299 cells; 50 μm),The inhibitory ratio (%) for three parallel assays (H1299 cells; 50 μm),The mean inhibitory ratio (%) (H1299 cells; 80 μm),The inhibitory ratio (%) for three parallel assays (H1299 cells; 80 μm),The mean inhibitory ratio (%) (H1299 cells; 100 μm),The inhibitory ratio (%) for three parallel assays (H1299 cells; 100 μm),The mean inhibitory ratio (%) (A549 cells; 25 μm),The inhibitory ratio (%) for three parallel assays (A549 cells; 25 μm),The mean inhibitory ratio (%) (A549 cells; 40 μm),The inhibitory ratio (%) for three parallel assays (A549 cells; 40 μm),The mean inhibitory ratio (%) (A549 cells; 50 μm),The inhibitory ratio (%) for three parallel assays (A549 cells; 50 μm),The mean inhibitory ratio (%) (H1299 cells; 25 μm),The inhibitory ratio (%) for three parallel assays (H1299 cells; 25 μm),The mean inhibitory ratio (%) (A549 cells; 100 μm),The inhibitory ratio (%) for three parallel assays (A549 cells; 100 μm)
"Ic1nc2cccc(-c3ccc(CN4CCOCC4)cc3)n2n1 [Compound 2, 2-iodo-5-[4-(4-morpholinylmethyl)phenyl]-[1,2,4]triazolo[1,5-a]pyridine]",31,32% and 31% and 29%,33,33% and 32%,31,32% and 29%,27,26% and 25% and 30%,22,21% and 22%,24,23% and 27%,–,–,–,–
"Nc1nc2cccc(-c3ccc(CN4CCOCC4)cc3)n2n1 [Compound 1, 2-amino-5-[4-(4-morpholinylmethyl)phenyl]-[1,2,4]triazolo[1,5-a]pyridine]",95,93% and 94% and 97%,–,–,85,86% and 84%,10,10% and 9%,–,–,29,28% and 31% and 29%,62,63% and 61%,31,31% and 30%
"N#Cc1nc2cccc(-c3ccc(CN4CCOCC4)cc3)n2n1 [Compound 3, 2-cyano-5-[4-(4-morpholinylmethyl)phenyl]-[1,2,4]triazolo[1,5-a]pyridine]",32,33% and 32%,32,32%,34,33% and 34% and 35%,22,20% and 26%,22,22% and 24% and 20%,25,24% and 27%,–,–,–,–
